Assay results reported in ChEMBL document CHEMBL1671689, “Activity of ceftaroline against recent emerging serotypes of Streptococcus pneumoniae in the United States” (2010).
≈ marks a conversion by molar mass, not a printed value.

Experiments:
Assay type in all cases: functional
Streptococcus pneumoniae [1] = assay: Antimicrobial activity against Streptococcus pneumoniae serotype 7F by broth microdilution method
Streptococcus pneumoniae [2] = assay: Antimicrobial activity against multiple drug resistant Streptococcus pneumoniae serotype 6B by broth microdilution method
Streptococcus pneumoniae [3] = assay: Antimicrobial activity against Streptococcus pneumoniae serotype 22F assessed as percent susceptible isolates by broth microdilution method
Streptococcus pneumoniae [4] = assay: Antimicrobial activity against Streptococcus pneumoniae serotype 19F assessed as percent susceptible isolates by broth microdilution method
Streptococcus pneumoniae [5] = assay: Antimicrobial activity against Streptococcus pneumoniae serotype 3 by broth microdilution method
Streptococcus pneumoniae [6] = assay: Antimicrobial activity against Streptococcus pneumoniae serotype 23B assessed as percent susceptible isolates by broth microdilution method
Streptococcus pneumoniae [7] = assay: Antimicrobial activity against Streptococcus pneumoniae serotype 19A assessed as percent susceptible isolates by broth microdilution method
Streptococcus pneumoniae [8] = assay: Antimicrobial activity against Streptococcus pneumoniae serotype 35B by broth microdilution method
Streptococcus pneumoniae [9] = assay: Antimicrobial activity against Streptococcus pneumoniae serotype 7F assessed as percent susceptible isolates by broth microdilution method
Streptococcus pneumoniae [10] = assay: Antimicrobial activity against multiple drug resistant Streptococcus pneumoniae serotype 19F by broth microdilution method
Streptococcus pneumoniae [11] = assay: Antimicrobial activity against Streptococcus pneumoniae serotype 35B assessed as percent susceptible isolates by broth microdilution method
Streptococcus pneumoniae [12] = assay: Antimicrobial activity against Streptococcus pneumoniae serotype 3 assessed as percent susceptible isolates by broth microdilution method
Streptococcus pneumoniae [13] = assay: Antimicrobial activity against Streptococcus pneumoniae serotype 11A assessed as percent susceptible isolates by broth microdilution method
Streptococcus pneumoniae [14] = assay: Antimicrobial activity against Streptococcus pneumoniae serotype 11A by broth microdilution method
Streptococcus pneumoniae [15] = assay: Antimicrobial activity against Streptococcus pneumoniae serotype 23A assessed as percent susceptible isolates by broth microdilution method
Streptococcus pneumoniae [16] = assay: Antimicrobial activity against multiple drug resistant Streptococcus pneumoniae serotype 19A by broth microdilution method
Streptococcus pneumoniae [17] = assay: Antimicrobial activity against multiple drug resistant Streptococcus pneumoniae serotype 19F assessed as percent susceptible isolates by broth microdilution method
Streptococcus pneumoniae [18] = assay: Antimicrobial activity against multiple drug resistant Streptococcus pneumoniae serotype 19A assessed as percent susceptible isolates by broth microdilution method
Streptococcus pneumoniae [19] = assay: Antimicrobial activity against Streptococcus pneumoniae serotype 6C by broth microdilution method
Streptococcus pneumoniae [20] = assay: Antimicrobial activity against Streptococcus pneumoniae serotype 19A by broth microdilution method
Streptococcus pneumoniae [21] = assay: Antimicrobial activity against Streptococcus pneumoniae serotype 6C assessed as percent susceptible isolates by broth microdilution method
Streptococcus pneumoniae [22] = assay: Antimicrobial activity against Streptococcus pneumoniae serotype 15A assessed as percent susceptible isolates by broth microdilution method
Streptococcus pneumoniae [23] = assay: Antimicrobial activity against multiple drug resistant Streptococcus pneumoniae serotype 6B assessed as percent susceptible isolates by broth microdilution method

| Compound | MIC (Streptococcus pneumoniae [1]) [µg/mL] | MIC50 (Streptococcus pneumoniae [1]) [µg/mL] | MIC90 (Streptococcus pneumoniae [1]) [µg/mL] | MIC50 (Streptococcus pneumoniae [2]) [µg/mL] | MIC90 (Streptococcus pneumoniae [2]) [µg/mL] | Activity (Streptococcus pneumoniae [3]) [%] | Activity (Streptococcus pneumoniae [4]) [%] | MIC (Streptococcus pneumoniae [5]) [µg/mL] | MIC50 (Streptococcus pneumoniae [5]) [µg/mL] | MIC90 (Streptococcus pneumoniae [5]) [µg/mL] | Activity (Streptococcus pneumoniae [6]) [%] | Activity (Streptococcus pneumoniae [7]) [%] | MIC50 (Streptococcus pneumoniae [8]) [µg/mL] | MIC90 (Streptococcus pneumoniae [8]) [µg/mL] | Activity (Streptococcus pneumoniae [9]) [%] | MIC50 (Streptococcus pneumoniae [10]) [µg/mL] | MIC90 (Streptococcus pneumoniae [10]) [µg/mL] | Activity (Streptococcus pneumoniae [11]) [%] | Activity (Streptococcus pneumoniae [12]) [%] | Activity (Streptococcus pneumoniae [13]) [%] | also measured |
| --- | --- | --- | --- | --- | --- | --- | --- | --- | --- | --- | --- | --- | --- | --- | --- | --- | --- | --- | --- | --- | --- |
| CC1(C)S[C@@H]2[C@H](NC(=O)COc3ccccc3)C(=O)N2[C@H]1C(=O)O [PENICILLIN V] | ≤ 0.03 | ≤ 0.03 | ≤ 0.03 | 4 (≈ 11.4 µM) | 4 (≈ 11.4 µM) | 100 | 20.7 | ≤ 0.03 | ≤ 0.03 | ≤ 0.03 | 84.8 | 13.8 | 2 (≈ 5.71 µM) | 2 (≈ 5.71 µM) | 10.2 | 4 (≈ 11.4 µM) | 4 (≈ 11.4 µM) | 10.2 | 98.8 | 95.9 | MIC (Streptococcus pneumoniae [14]): ≤ 0.03 µg/mL; MIC50 (Streptococcus pneumoniae [14]): ≤ 0.03 µg/mL; MIC90 (Streptococcus pneumoniae [14]): ≤ 0.03 µg/mL; Activity (Streptococcus pneumoniae [15]): 36.4%; MIC50 (Streptococcus pneumoniae [16]): 4 µg/mL (≈ 11.4 µM); MIC90 (Streptococcus pneumoniae [16]): 4 µg/mL (≈ 11.4 µM); Activity (Streptococcus pneumoniae [17]): 0%; Activity (Streptococcus pneumoniae [18]): 0%; MIC50 (Streptococcus pneumoniae [19]): 0.5 µg/mL (≈ 1.43 µM); MIC90 (Streptococcus pneumoniae [19]): 1 µg/mL (≈ 2.85 µM); MIC50 (Streptococcus pneumoniae [20]): 4 µg/mL (≈ 11.4 µM); MIC90 (Streptococcus pneumoniae [20]): 4 µg/mL (≈ 11.4 µM); Activity (Streptococcus pneumoniae [21]): 37.2%; Activity (Streptococcus pneumoniae [22]): 10.5%; Activity (Streptococcus pneumoniae [23]): 0% |
| CO/N=C(\C(=O)N[C@@H]1C(=O)N2C(C(=O)O)=C(COC(N)=O)CS[C@H]12)c1ccco1 [CEFUROXIME] | ≤ 1 | ≤ 1 | ≤ 1 | 8 (≈ 18.9 µM) | > 8 | 100 | 20.7 | ≤ 1 | ≤ 1 | ≤ 1 | 96.8 | 36.1 | 4 (≈ 9.43 µM) | 4 (≈ 9.43 µM) | 9.6 | 8 (≈ 18.9 µM) | > 8 | 9.6 | 100 | 95.2 | MIC (Streptococcus pneumoniae [14]): ≤ 1 µg/mL; MIC50 (Streptococcus pneumoniae [14]): ≤ 1 µg/mL; MIC90 (Streptococcus pneumoniae [14]): ≤ 1 µg/mL; Activity (Streptococcus pneumoniae [15]): 96.4%; MIC50 (Streptococcus pneumoniae [16]): 8 µg/mL (≈ 18.9 µM); Activity (Streptococcus pneumoniae [17]): 0%; Activity (Streptococcus pneumoniae [18]): 0%; MIC50 (Streptococcus pneumoniae [19]): 2 µg/mL (≈ 4.71 µM); MIC90 (Streptococcus pneumoniae [19]): 4 µg/mL (≈ 9.43 µM); MIC50 (Streptococcus pneumoniae [20]): 8 µg/mL (≈ 18.9 µM); MIC90 (Streptococcus pneumoniae [20]): > 8 µg/mL; Activity (Streptococcus pneumoniae [21]): 47.5%; Activity (Streptococcus pneumoniae [22]): 91.4%; Activity (Streptococcus pneumoniae [23]): 0% |
| CO/N=C(\C(=O)N[C@@H]1C(=O)N2C(C(=O)O)=C(CSc3nc(=O)c(O)nn3C)CS[C@H]12)c1csc(N)n1 [CEFTRIAXONE] | ≤ 0.25 | ≤ 0.25 | ≤ 0.25 | 2 (≈ 3.61 µM) | 4 (≈ 7.21 µM) | 100 | 65.5 | ≤ 0.25 | ≤ 0.25 | ≤ 0.25 | 97 | 65.6 | 1 (≈ 1.8 µM) | 1 (≈ 1.8 µM) | 98.3 | 2 (≈ 3.61 µM) | 4 (≈ 7.21 µM) | 98.3 | 100 | 98 | MIC (Streptococcus pneumoniae [14]): ≤ 0.25 µg/mL; MIC50 (Streptococcus pneumoniae [14]): ≤ 0.25 µg/mL; MIC90 (Streptococcus pneumoniae [14]): ≤ 0.25 µg/mL; Activity (Streptococcus pneumoniae [15]): 100%; MIC50 (Streptococcus pneumoniae [16]): 2 µg/mL (≈ 3.61 µM); MIC90 (Streptococcus pneumoniae [16]): 4 µg/mL (≈ 7.21 µM); Activity (Streptococcus pneumoniae [17]): 43.9%; Activity (Streptococcus pneumoniae [18]): 43.9%; MIC50 (Streptococcus pneumoniae [19]): 0.25 µg/mL (≈ 0.451 µM); MIC90 (Streptococcus pneumoniae [19]): 0.25 µg/mL (≈ 0.451 µM); MIC50 (Streptococcus pneumoniae [20]): 1 µg/mL (≈ 1.8 µM); MIC90 (Streptococcus pneumoniae [20]): 2 µg/mL (≈ 3.61 µM); Activity (Streptococcus pneumoniae [21]): 100%; Activity (Streptococcus pneumoniae [22]): 100%; Activity (Streptococcus pneumoniae [23]): 43.9% |
| CC1(C)S[C@@H]2[C@H](NC(=O)Cc3ccccc3)C(=O)N2[C@H]1C(=O)O [PENICILLIN G] | ≤ 0.03 | ≤ 0.03 | ≤ 0.03 | 4 (≈ 12 µM) | 4 (≈ 12 µM) | 100 | 37.9 | ≤ 0.03 | ≤ 0.03 | ≤ 0.03 | 100 | 46.6 | 2 (≈ 5.98 µM) | 2 (≈ 5.98 µM) | 98.3 | 4 (≈ 12 µM) | 4 (≈ 12 µM) | 98.3 | 100 | 100 | MIC (Streptococcus pneumoniae [14]): ≤ 0.03 µg/mL; MIC50 (Streptococcus pneumoniae [14]): ≤ 0.03 µg/mL; MIC90 (Streptococcus pneumoniae [14]): ≤ 0.03 µg/mL; Activity (Streptococcus pneumoniae [15]): 100%; MIC50 (Streptococcus pneumoniae [16]): 4 µg/mL (≈ 12 µM); MIC90 (Streptococcus pneumoniae [16]): 4 µg/mL (≈ 12 µM); Activity (Streptococcus pneumoniae [17]): 11.4%; Activity (Streptococcus pneumoniae [18]): 11.4%; MIC50 (Streptococcus pneumoniae [19]): 0.5 µg/mL (≈ 1.5 µM); MIC90 (Streptococcus pneumoniae [19]): 1 µg/mL (≈ 2.99 µM); MIC50 (Streptococcus pneumoniae [20]): 4 µg/mL (≈ 12 µM); MIC90 (Streptococcus pneumoniae [20]): 4 µg/mL (≈ 12 µM); Activity (Streptococcus pneumoniae [21]): 100%; Activity (Streptococcus pneumoniae [22]): 100%; Activity (Streptococcus pneumoniae [23]): 11.4% |
